# From PubChem BioAssay AID240 (DTP/NCI, 2004)
# “And” between values parts separate entries of the source, which are not always exact repeats. Identical values can stand only once. Toxic doses and inconclusive results are not listed.
# System: Lymphoma 4 ip in BDF1 mice, median survival
# Assay: NCI In Vivo Anticancer Drug Screen. Data for tumor model Lymphoma 4 (intraperitoneal) in B6D2F1 (BDF1) mice
# Conditions: endpoint: median survival time, schedule: Q01DX010 (ip), vehicle: saline, higher = longer survival
# Protocol: The antitumor activity of compounds was measured in mice bearing transplantable tumors. Survival or tumor size were measured and the results are expressed as the measurement made in the treated group (T) divided by the measurement made in the vehicle treated control group (C). The tumor model used in this assay is Lymphoma 4 (intraperitoneal) in B6D2F1 (BDF1) mice
structure (smiles),measurement,setting,value
Nc1c(Br)cc2c(c1Br)Cc1cc([N+](=O)[O-])ccc1-2,T/C,dose: 15.6 mg/kg/injection,100 % of control
same,T/C,dose: 31.3 mg/kg/injection,107 % of control and 118 % of control
same,T/C,dose: 62.5 mg/kg/injection,107 % of control and 111 % of control
same,T/C,dose: 125.0 mg/kg/injection,111 % of control and 114 % of control
same,T/C,dose: 250.0 mg/kg/injection,103 % of control
CS(=O)(=O)OCC(O)C(O)C(O)C(O)COS(C)(=O)=O (centres undefined),T/C,dose: 50.0 mg/kg/injection,100 % of control
same,T/C,dose: 100.0 mg/kg/injection,103 % of control
same,T/C,dose: 200.0 mg/kg/injection,103 % of control
same,T/C,dose: 400.0 mg/kg/injection,114 % of control
N=[N+]=CC(=O)OCC(N)C(=O)O (centres undefined),T/C,dose: 3.13 mg/kg/injection,102 % of control and 111 % of control
same,T/C,dose: 6.25 mg/kg/injection,102 % of control and 108 % of control
same,T/C,dose: 12.5 mg/kg/injection,91 % of control and 114 % of control
CCCCNc1ncnc2c1cnn2C,T/C,dose: 15.6 mg/kg/injection,103 % of control and 108 % of control
same,T/C,dose: 31.3 mg/kg/injection,102 % of control and 103 % of control
same,T/C,dose: 62.5 mg/kg/injection,100 % of control and 123 % of control
C1CN1c1nc(N2CC2)nc(N2CC2)n1,T/C,dose: 0.13 mg/kg/injection,94 % of control and 105 % of control
same,T/C,dose: 0.25 mg/kg/injection,100 % of control and 102 % of control
same,T/C,dose: 0.5 mg/kg/injection,108 % of control
same,T/C,dose: 1.0 mg/kg/injection,97 % of control
OCC1OC(n2cnc3c(=S)nc[nH]c32)C(O)C1O (centres undefined),T/C,dose: 20.0 mg/kg/injection,96 % of control and 105 % of control
same,T/C,dose: 40.0 mg/kg/injection,106 % of control and 111 % of control
same,T/C,dose: 80.0 mg/kg/injection,100 % of control and 109 % of control
same,T/C,dose: 160.0 mg/kg/injection,100 % of control and 105 % of control
CC(=O)NC1=C(N2CC2)C(=O)C(NC(C)=O)=C(N2CC2)C1=O,T/C,dose: 0.25 mg/kg/injection,121 % of control
same,T/C,dose: 1.0 mg/kg/injection,175 % of control
same,T/C,dose: 2.0 mg/kg/injection,164 % of control
O=c1cnn(C2OC(CO)C(O)C2O)c(=O)[nH]1 (centres undefined),T/C,dose: 200.0 mg/kg/injection,106 % of control
same,T/C,dose: 400.0 mg/kg/injection,112 % of control
same,T/C,dose: 800.0 mg/kg/injection,106 % of control
CCCSc1ncnc2nc[nH]c12,T/C,dose: 31.3 mg/kg/injection,93 % of control and 96 % of control
same,T/C,dose: 125.0 mg/kg/injection,93 % of control and 96 % of control
O=c1[nH]c(=O)n(C2CC(O)C(CO)O2)cc1F (centres undefined),T/C,dose: 10.0 mg/kg/injection,103 % of control
same,T/C,dose: 20.0 mg/kg/injection,116 % of control and 123 % of control
same,T/C,dose: 40.0 mg/kg/injection,119 % of control
CN(C)c1ccc(/C=C/c2ccnc3ccccc23)cc1,T/C,dose: 4.0 mg/kg/injection,93 % of control and 103 % of control
same,T/C,dose: 8.0 mg/kg/injection,96 % of control and 100 % of control
same,T/C,dose: 16.0 mg/kg/injection,93 % of control and 100 % of control
O=c1cn[nH]c(=O)[nH]1,T/C,dose: 62.5 mg/kg/injection,93 % of control and 108 % of control
same,T/C,dose: 125.0 mg/kg/injection,103 % of control and 105 % of control
same,T/C,dose: 250.0 mg/kg/injection,97 % of control and 106 % of control
same,T/C,dose: 500.0 mg/kg/injection,102 % of control and 103 % of control
O=[n+]1c2c(n([O-])c3ccccc31)-c1cccc3cccc-2c13,T/C,dose: 3.13 mg/kg/injection,107 % of control
same,T/C,dose: 6.25 mg/kg/injection,107 % of control
same,T/C,dose: 12.5 mg/kg/injection,115 % of control
same,T/C,dose: 25.0 mg/kg/injection,100 % of control
CC[C@]1(O)C[C@H]2CN(CCc3c([nH]c4ccccc34)[C@@](C(=O)OC)(c3cc4c(cc3OC)N(C=O)[C@H]3[C@@](O)(C(=O)OC)[C@H](OC(C)=O)[C@]5(CC)C=CCN6CC[C@]43[C@@H]65)C2)C1,T/C,dose: 0.03 mg/kg/injection,104 % of control and 121 % of control
same,T/C,dose: 0.06 mg/kg/injection,108 % of control
same,T/C,dose: 0.12 mg/kg/injection,158 % of control
same,T/C,dose: 0.5 mg/kg/injection,104 % of control
